Source: ChEMBL document CHEMBL1201862, “PubChem BioAssay data set” (2004)
Calls of active or inactive are those of the source.

How the values were obtained:
[1] = system: Escherichia coli; experiment: microbe, parasite or virus in culture
[2] = molecular target: Intestinal-type alkaline phosphatase (Homo sapiens, UniProt P09923); experiment: inhibition of human intestinal alkaline phosphatase – biochemical, dose response (AID 488876); assay type: functional
[3] = molecular target: Intestinal-type alkaline phosphatase (Mus musculus, UniProt P24822); experiment: PubChem AID 488785; assay type: functional
[4] = molecular target: T1, Alkaline phosphatase, tissue-nonspecific isozyme (Homo sapiens, UniProt P05186); experiment: TNAP enzyme inhibition by screening hits, dose response, selectivity assay for mouse IAP inhibitor project, biochemical, human TNAP, uHTS hits (AID 488906); assay type: functional
T1 sequence (P05186 whole entry): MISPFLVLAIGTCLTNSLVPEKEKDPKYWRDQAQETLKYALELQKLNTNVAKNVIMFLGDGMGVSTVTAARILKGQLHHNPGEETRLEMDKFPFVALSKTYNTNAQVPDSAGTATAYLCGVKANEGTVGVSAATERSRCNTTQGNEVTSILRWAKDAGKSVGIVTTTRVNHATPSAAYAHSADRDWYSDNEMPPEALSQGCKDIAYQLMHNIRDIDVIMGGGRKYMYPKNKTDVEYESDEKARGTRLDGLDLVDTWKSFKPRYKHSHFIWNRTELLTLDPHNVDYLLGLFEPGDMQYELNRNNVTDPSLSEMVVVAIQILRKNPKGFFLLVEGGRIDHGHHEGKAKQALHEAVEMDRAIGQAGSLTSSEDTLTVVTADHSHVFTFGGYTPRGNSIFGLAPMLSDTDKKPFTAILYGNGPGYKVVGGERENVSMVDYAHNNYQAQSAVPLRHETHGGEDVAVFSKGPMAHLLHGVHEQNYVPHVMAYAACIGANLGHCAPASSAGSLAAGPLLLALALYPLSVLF

[5] = molecular target: T2, Small ubiquitin-related modifier 1 (Homo sapiens, UniProt P63165); experiment: SUMO1 protein interaction blockers, potency – biochemical, fluorescence polarization, uHTS hits, dose response (AID 624382); assay type: functional; conditions: read-out: IC50_Mean
[6] = molecular target: T2, Small ubiquitin-related modifier 1; experiment: SUMO1 protein-protein binding blockers, potency – biochemical, FRET, dose response (AID 624383); assay type: functional; conditions: read-out: IC50_Mean
[7] = molecular target: T3, Sentrin-specific protease 8 (Homo sapiens, UniProt Q96LD8); assay type: functional
T3 sequence (Q96LD8 whole entry): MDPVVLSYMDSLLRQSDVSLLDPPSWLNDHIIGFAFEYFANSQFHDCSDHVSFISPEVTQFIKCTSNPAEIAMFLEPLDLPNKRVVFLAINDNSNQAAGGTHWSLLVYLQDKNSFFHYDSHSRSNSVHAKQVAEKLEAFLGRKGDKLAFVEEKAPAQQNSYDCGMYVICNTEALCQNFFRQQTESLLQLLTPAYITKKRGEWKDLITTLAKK

[8] = molecular target: T3, Sentrin-specific protease 8; assay type: functional; remark: listed apart in the source
[9] = molecular target: T4, Hexokinase HKDC1 (Homo sapiens, UniProt Q2TB90); experiment: activation of HKDC1 glucose phosphorylation – biochemical, W721R variant, dose response (AID 504730); assay type: functional
T4 sequence (Q2TB90 whole entry): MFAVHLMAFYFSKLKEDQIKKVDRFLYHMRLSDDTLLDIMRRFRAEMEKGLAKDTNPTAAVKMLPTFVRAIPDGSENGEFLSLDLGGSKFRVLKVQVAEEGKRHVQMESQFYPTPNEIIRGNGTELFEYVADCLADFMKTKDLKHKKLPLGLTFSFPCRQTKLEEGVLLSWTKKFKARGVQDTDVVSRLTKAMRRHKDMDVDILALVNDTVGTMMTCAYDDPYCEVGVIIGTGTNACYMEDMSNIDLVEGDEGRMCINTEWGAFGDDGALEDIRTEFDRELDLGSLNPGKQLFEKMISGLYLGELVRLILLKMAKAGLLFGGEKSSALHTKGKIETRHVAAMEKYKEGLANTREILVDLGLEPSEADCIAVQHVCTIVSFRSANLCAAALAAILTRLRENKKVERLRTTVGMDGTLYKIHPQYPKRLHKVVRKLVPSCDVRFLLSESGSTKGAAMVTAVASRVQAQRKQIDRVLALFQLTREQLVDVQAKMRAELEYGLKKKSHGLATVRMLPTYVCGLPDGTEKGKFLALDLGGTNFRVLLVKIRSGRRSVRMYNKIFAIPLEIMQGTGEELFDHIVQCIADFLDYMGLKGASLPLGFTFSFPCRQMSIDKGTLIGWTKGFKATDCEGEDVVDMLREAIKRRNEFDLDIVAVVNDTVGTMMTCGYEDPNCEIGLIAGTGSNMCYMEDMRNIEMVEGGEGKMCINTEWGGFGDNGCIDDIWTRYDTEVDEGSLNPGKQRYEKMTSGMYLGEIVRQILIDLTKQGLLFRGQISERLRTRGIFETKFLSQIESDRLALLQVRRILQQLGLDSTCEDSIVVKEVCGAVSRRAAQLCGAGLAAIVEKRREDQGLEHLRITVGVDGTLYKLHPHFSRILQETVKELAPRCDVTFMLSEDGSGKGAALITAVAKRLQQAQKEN

[10] = molecular target: T5, Hexokinase-1 (Homo sapiens, UniProt P19367); experiment: HK1 enzyme activation by HKDC1 hits – biochemical, selectivity assay for HKDC1 activator project, dose response (AID 504762); assay type: functional
T5 sequence (P19367 whole entry): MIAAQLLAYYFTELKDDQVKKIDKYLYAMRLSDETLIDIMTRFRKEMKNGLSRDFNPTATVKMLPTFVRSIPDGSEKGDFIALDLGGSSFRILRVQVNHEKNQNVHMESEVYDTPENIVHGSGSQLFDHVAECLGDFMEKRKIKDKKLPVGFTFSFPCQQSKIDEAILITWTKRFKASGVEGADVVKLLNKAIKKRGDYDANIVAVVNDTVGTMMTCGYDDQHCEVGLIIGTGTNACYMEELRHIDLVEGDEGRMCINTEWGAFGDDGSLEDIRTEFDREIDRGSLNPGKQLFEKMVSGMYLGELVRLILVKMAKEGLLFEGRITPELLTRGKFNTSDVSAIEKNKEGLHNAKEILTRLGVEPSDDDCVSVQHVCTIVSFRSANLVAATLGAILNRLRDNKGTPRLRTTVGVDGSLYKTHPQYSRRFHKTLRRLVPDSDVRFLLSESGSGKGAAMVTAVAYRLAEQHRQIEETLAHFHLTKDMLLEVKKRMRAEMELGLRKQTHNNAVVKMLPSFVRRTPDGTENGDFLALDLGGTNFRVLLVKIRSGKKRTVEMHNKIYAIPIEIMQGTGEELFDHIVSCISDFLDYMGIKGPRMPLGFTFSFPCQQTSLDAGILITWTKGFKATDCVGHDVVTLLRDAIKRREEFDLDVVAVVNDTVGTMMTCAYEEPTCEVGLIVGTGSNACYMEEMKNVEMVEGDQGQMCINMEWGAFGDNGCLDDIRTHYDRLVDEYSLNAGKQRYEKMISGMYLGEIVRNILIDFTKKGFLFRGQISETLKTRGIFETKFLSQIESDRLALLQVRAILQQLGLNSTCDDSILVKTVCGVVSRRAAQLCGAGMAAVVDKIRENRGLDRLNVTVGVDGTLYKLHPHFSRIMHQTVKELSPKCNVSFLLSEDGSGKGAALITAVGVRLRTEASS

[11] = molecular target: T6, Caspase-3 (Homo sapiens, UniProt P42574); experiment: SAR Analysis of small molecule inhibitors of Sentrin-specific proteases (SENPs) using a Caspase-3 Selectivity assay. [Related pubchem assays (depositor defined):AID2540, AID2599, AID434973, AID489001]; assay type: functional
T6 sequence (P42574 whole entry): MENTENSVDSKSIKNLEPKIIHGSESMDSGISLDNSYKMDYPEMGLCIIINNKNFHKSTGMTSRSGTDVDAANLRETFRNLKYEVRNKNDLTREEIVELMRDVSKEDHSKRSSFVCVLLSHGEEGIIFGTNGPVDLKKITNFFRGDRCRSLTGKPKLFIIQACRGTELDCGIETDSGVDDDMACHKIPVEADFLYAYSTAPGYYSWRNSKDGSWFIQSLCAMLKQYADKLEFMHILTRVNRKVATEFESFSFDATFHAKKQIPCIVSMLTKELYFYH

[12] = molecular target: T7, Sentrin-specific protease 6 (Homo sapiens, UniProt Q9GZR1); experiment: SAR Analysis of small molecule inhibitors of Sentrin-specific protease 6 (SENP6) using a Luminescent assay. [Related pubchem assays (depositor defined):AID2582, AID2599]; assay type: functional
T7 sequence (Q9GZR1 whole entry): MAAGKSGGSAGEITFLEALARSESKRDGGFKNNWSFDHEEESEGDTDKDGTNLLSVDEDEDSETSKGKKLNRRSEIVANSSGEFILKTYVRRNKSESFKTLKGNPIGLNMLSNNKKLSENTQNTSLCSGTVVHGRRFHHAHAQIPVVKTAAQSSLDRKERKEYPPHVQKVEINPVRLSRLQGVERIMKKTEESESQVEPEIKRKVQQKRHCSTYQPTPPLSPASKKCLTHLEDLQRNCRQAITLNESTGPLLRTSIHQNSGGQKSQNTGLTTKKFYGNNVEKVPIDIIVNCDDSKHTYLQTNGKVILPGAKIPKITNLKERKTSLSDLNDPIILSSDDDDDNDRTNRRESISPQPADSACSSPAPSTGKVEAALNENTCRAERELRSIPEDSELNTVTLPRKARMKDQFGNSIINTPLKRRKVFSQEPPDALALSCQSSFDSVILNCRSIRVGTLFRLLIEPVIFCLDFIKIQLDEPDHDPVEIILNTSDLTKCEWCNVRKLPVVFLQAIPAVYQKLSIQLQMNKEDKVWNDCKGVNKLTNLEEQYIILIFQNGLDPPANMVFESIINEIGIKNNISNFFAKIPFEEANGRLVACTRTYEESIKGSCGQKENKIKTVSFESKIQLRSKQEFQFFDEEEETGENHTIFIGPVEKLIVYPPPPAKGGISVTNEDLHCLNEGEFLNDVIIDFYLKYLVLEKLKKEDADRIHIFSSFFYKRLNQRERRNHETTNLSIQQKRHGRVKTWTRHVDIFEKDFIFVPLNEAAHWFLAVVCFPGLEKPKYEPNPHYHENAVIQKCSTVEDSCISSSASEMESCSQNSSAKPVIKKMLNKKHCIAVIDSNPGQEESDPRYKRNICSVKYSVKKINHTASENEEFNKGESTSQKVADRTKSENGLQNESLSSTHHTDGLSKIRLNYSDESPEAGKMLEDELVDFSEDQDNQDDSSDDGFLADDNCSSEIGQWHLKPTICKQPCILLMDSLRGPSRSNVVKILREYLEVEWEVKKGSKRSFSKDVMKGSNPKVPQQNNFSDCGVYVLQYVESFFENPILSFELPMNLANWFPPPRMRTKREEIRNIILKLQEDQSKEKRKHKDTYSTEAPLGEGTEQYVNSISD

[13] = molecular target: T3, Sentrin-specific protease 8; experiment: inhibition of human SENP8 cleavage activity – biochemical, luminescence, SAR follow-up (AID 504501); assay type: functional
[14] = molecular target: T8, Low molecular weight phosphotyrosine protein phosphatase (Homo sapiens, UniProt P24666); assay type: functional; conditions: read-out: IC50_Mean;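 further: Dose-response confirmation assay measuring inhibition of LMPTP enzyme activity by fluorescence intensity read-out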
T8 sequence (P24666 whole entry): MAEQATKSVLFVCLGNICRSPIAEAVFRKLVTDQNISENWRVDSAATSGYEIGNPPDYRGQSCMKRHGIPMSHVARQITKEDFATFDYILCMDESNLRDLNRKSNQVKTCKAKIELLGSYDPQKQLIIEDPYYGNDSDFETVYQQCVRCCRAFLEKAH

T2 sequence (P63165 whole entry): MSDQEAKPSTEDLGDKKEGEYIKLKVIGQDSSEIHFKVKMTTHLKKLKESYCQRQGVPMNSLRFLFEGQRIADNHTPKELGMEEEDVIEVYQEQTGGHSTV
Sequence of Intestinal-type alkaline phosphatase (Homo sapiens, UniProt P09923) (P09923 whole entry): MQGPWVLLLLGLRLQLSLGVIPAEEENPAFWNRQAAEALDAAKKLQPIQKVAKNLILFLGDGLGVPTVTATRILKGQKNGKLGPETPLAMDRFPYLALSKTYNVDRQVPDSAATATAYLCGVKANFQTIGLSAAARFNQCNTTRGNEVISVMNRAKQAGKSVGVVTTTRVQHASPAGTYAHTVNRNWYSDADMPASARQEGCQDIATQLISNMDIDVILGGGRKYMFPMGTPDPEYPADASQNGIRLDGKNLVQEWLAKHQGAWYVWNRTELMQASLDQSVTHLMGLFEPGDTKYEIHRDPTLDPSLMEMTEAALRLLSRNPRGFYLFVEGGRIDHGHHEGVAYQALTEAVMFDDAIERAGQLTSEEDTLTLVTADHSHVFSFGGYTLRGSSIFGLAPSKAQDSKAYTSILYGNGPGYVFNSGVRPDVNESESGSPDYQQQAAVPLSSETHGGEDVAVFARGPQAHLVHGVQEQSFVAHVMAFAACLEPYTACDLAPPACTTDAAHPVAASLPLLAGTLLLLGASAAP
Sequence of Intestinal-type alkaline phosphatase (Mus musculus, UniProt P24822) (P24822 whole entry): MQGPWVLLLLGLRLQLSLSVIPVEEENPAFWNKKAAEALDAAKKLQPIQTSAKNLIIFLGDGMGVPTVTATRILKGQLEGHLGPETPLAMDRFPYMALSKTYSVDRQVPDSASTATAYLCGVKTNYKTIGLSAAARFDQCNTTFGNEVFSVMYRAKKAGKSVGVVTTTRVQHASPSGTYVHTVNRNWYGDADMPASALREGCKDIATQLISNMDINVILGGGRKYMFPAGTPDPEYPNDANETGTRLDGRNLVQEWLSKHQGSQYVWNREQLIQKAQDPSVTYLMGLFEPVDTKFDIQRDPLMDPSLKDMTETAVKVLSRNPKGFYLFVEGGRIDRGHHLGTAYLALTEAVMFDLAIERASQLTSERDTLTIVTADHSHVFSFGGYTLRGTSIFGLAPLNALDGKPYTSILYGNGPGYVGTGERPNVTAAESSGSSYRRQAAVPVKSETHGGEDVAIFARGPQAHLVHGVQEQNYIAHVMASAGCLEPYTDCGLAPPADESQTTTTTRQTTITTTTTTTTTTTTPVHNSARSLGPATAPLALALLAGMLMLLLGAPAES

In the case of `CCc1cc(Cl)c(OC)c(C(=O)NC[C@@H]2CCCN2CC)c1O`, the AC50 [1] is reported as 19.4 µM (active).

For `O=C(NC1CCCCC1)Oc1cc2oc(=O)sc2cc1Cl`, the IC50 [2] was 3.54 µM (active), the IC50 [3] was 3.78 µM (active) and the IC50 [4] was 11.8 µM (active).

`COc1ccc(/C=C(/NC(=O)c2cccc([N+](=O)[O-])c2)C(=O)O)cc1OC` was tested, and the AC50 [1] was 18.5 µM (active).

`O=C(Nc1ccc2c(c1)C(=O)NC2=O)c1ccc2ncsc2c1` was tested, and the IC50 [5] was > 66.6 µM (inactive) and the IC50 [6] was 8.45 µM (active).

With `COc1c(F)c(F)cc2c(=O)c(C(=O)O)cn(C3CC3)c12` the AC50 [1] was 3.88 µM (active).

For `CCOC(=O)c1ccc(N2C(=O)Cc3ccccc3C2=O)cc1`, the IC50 [7] was 12 µM (active) and the IC50 [8] was > 100 µM (inactive).

In the case of `COC(=O)c1c(NC(C)=O)sc(Cc2ccccc2)c1C`, the EC50 [9] is reported as 23.9 µM (inactive) and the EC50 [10] is reported as 39.4 µM (inactive).

`Cc1ccc(C2=NN=C(Nc3ccc(F)cc3)SC2)cc1` was tested, and the EC50 [9] was 10 µM (active) and the EC50 [10] was 17.8 µM (active).

For `CC(=O)c1ccc(-n2nnnc2SCC(=O)N2CCc3ccccc3C2)cc1`, the IC50 [7] was 8.03 µM (active) and the IC50 [8] was 10.2 µM (active).

With `COC(=O)c1ccc(NC(=O)c2ccc3c(c2)OCO3)cc1` the IC50 [11] was 3.7 µM (active), the IC50 [12] was > 99 µM (inactive) and the IC50 [13] was > 99 µM (inactive).

In the case of `Cc1cc(N2CCN(C(C(=O)NC3CCCC3)c3ccc(-c4ccccc4)cc3)CC2)c2ccccc2n1` (configuration not stated), the IC50 [14] is reported as 6.49 µM (active).

`C[N+](C)(CCCCCC[N+](C)(C)CCCN1C(=O)c2cccc3cccc(c23)C1=O)CCCN1C(=O)c2cccc3cccc(c23)C1=O` was tested, and the EC50 [9] was 20.4 µM (inactive) and the EC50 [10] was 17.9 µM (active).
